Data on 29 molecules can be found in patent US7851474B2, “Dipiperazinyl ketones and related analogues” (Neurogen Corporation, priority 2005, dated 2010).

In general, Ki refers to a measure of affinity in units of concentration, obtained from inhibition or displacement.

The target in one test is T1, chimeric human H3 receptor (Homo sapiens, UniProt Q9Y5N1, E19D).
T1 construct: made in house; host or cells: Sf9 insect cells (baculovirus infection); P2 membrane preparation
T1 sequence (Q9Y5N1 with tags, fused parts or gaps E19D): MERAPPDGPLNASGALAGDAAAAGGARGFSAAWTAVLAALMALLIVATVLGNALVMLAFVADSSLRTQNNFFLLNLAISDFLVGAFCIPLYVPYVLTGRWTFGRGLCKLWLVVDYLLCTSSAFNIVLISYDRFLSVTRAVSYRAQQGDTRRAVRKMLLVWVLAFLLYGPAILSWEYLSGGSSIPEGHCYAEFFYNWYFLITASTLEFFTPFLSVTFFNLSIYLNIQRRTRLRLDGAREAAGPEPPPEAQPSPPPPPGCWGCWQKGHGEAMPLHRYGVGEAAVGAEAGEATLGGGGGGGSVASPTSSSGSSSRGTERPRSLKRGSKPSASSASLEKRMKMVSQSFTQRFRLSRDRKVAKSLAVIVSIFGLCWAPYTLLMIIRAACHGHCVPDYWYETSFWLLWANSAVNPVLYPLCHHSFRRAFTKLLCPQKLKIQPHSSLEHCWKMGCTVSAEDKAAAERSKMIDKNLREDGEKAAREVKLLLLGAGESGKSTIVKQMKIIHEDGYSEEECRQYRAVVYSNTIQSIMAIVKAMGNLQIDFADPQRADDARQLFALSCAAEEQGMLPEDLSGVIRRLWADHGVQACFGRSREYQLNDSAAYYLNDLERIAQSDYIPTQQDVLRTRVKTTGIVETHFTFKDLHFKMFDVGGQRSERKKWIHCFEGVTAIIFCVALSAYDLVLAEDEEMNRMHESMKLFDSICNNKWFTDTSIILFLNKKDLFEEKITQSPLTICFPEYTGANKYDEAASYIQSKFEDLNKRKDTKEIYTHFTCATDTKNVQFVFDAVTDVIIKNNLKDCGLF
Put plainly: Chimeric human H3 receptor GTP binding assay (agonist-stimulated GTP-gamma35S binding, Example 7). Type of test: biochemical. The settings on record: "*" in Ki of Table II; assay of Example 7; read-out: Ki. From the text:
This Example illustrates a representative assay for evaluating agonist-stimulated GTP-gamma^35S binding (“GTP binding”) activity. […] This agonist-stimulated GTP binding activity can also be used to detect partial agonism mediated by antagonist compounds. A compound analyzed in this assay is referred to herein as a “test compound.”
Four independent baculoviral stocks (one directing the expression of the chimeric human H3 receptor and three directing the expression of each of the three subunits of a heterotrimeric G-protein) are used to infect a culture of Sf9 cells as described above. P2 membranes are prepared as described above, and agonist-stimulated GTP binding on the P2 membranes is assessed using histamine (Sigma Chemical Co., St. Louis, Mo.) as agonist in order to ascertain that the receptor/G-protein-alpha-beta-gamma combination(s) yield a functional response as measured by GTP binding. P2 membranes are resuspended by Dounce homogenization (tight pestle) in GTP binding assay buffer (50 mM Tris pH 7.4, 120 mM NaCl, 5 mM MgCl2, 2 mM EGTA, 1 mg/ml BSA, 0.2 mg/ml bacitracin, 0.02 mg/ml aprotinin, 0.01 mg/ml saponin, 10 μM GDP) and added to assay tubes at a concentration of 35 μg protein/reaction tube. […] In competition experiments, non-radiolabeled test compounds are added to separate reactions at concentrations ranging from 10^−10 M to 10^−6 M along with 1 μM histamine to yield a final volume of 0.20 ml.
Neutral antagonists are antagonists that are substantially free of inherent agonist activity, and include those test compounds that reduce the histamine-stimulated GTP binding activity towards, but not below, baseline levels. In contrast, in the absence of added histamine, inverse agonists reduce the GTP binding activity of the receptor-containing membranes below baseline.
After a 60-min incubation at room temperature, reactions are terminated by vacuum filtration over WHATMAN GF/C filters (pre-soaked in wash buffer, 0.1% BSA) followed by washing with ice-cold wash buffer (50 mM Tris pH 7.4, 120 mM NaCl). The amount of receptor-bound (and thereby membrane-bound) GTP-gamma^35S is determined by measuring the filter-bound radioactivity, preferably by liquid scintillation spectrometry of the washed filters. […] Data is expressed as percent above basal (baseline). The results of GTP binding experiments are analyzed using SIGMAPLOT software (SPSS Inc., Chicago, Ill.).
IC50 values are calculated by non-linear regression analysis of dose-response curves using Kaleidograph (Synergy Software, Reading, Pa.).
For `O=C(CN1CCN(c2cccc(-c3ccccc3)c2)CC1)N1CCN(C2CCC2)CC1` [Compound 493, 1-biphenyl-3-yl-4-[2-(4-cyclobutylpiperazin-1-yl)-2-oxoethyl]piperazine], the Ki is less than 1000 nM.

The test is the same for the next values; noted with them: Table II "Ki", symbol "*": Ki in the assay of Example 7; read-out: Ki.
For `O=C(CN1CCN(c2cnc(-c3ccc(OC(F)(F)F)cc3)cn2)CC1)N1CCN(C2CCC2)CC1` [Compound 934, 2-{4-[2-(4-cyclobutylpiperazin-1-yl)-2-oxoethyl]piperazin-1-yl}-5-[4-(trifluoromethoxy)phenyl] pyrazine], the Ki is less than 1000 nM.

With `COc1cccc(-c2cnc(N3CCN(CC(=O)N4CCN(C5CCC5)CC4)CC3)cn2)c1` [Compound 933, 2-{4-[2-(4-cyclobutylpiperazin-1-yl)-2-oxoethyl]piperazin-1-yl}-5-(3-methoxyphenyl)pyrazine], the Ki was less than 1000 nM.

Consider `O=C(CN1CCN(C(=O)C2CCCO2)CC1)N1CCN(C2CCCC2)CC1` (centres unmarked) [Compound 841, 1-cyclopentyl-4-{[4-(tetrahydrofuran-2-ylcarbonyl)piperazin-1-yl]acetyl}piperazine], for which the Ki is less than 1000 nM.

For `Cc1ccc(-c2ccc(N3CCN(CC(=O)N4CCN(C5CCC5)CC4)CC3)cc2)cc1` [Compound 784, 1-cyclobutyl-4-{[4-(4′-methylbiphenyl-4-yl)piperazin-1-yl]acetyl}piperazine], the Ki was less than 1000 nM.

Staying with this test, now noted: Table II, "*" in Ki; assay of Example 7; read-out: Ki.
`CSc1cccc(-c2ccc(N3CCN(CC(=O)N4CCN(C5CCC5)CC4)CC3)cc2)c1` [Compound 584, 1-cyclobutyl-4-({4-[3′-(methylthio)biphenyl-4-yl]piperazin-1-yl}acetyl)piperazine]: the Ki was less than 1000 nM.

With `O=C(CN1CCN(c2ccc(-c3ccccc3F)cc2)CC1)N1CCN(C2CCC2)CC1` [Compound 707, 1-cyclobutyl-4-{[4-(2′-fluorobiphenyl-4-yl)piperazin-1-yl]acetyl}piperazine], the Ki is less than 1000 nM.

Take `O=C(CN1CCN(c2ccc(-c3cccc(Cl)c3Cl)cc2)CC1)N1CCN(C2CCC2)CC1` [Compound 665, 1-cyclobutyl-4-{[4-(2′,3′-dichlorobiphenyl-4-yl)piperazin-1-yl]acetyl}piperazine]: the Ki was less than 1000 nM.

With `Cc1cccc(-c2ccc(N3CCN(CC(=O)N4CCN(C5CCC5)CC4)CC3)cc2)c1` [Compound 762, 1-cyclobutyl-4-{[4-(3′-methylbiphenyl-4-yl)piperazin-1-yl]acetyl}piperazine], the Ki was less than 1000 nM.

The same test, now with this note: Table II; assay of Example 7; "*" in Ki; read-out: Ki.
For `O=C(CN1CCN(c2ccc(-c3ccc4c(c3)OCO4)nn2)CC1)N1CCN(C2CCC2)CC1` [Compound 986, 3-(1,3-benzodioxol-5-yl)-6-{4-[2-(4-cyclobutylpiperazin-1-yl)-2-oxoethyl]piperazin-1-yl}pyridazine], the Ki was less than 1000 nM.

Consider `O=C(NCC(F)(F)F)c1ccc(N2CCN(CC(=O)N3CCN(C4CCC4)CC3)CC2)cc1` [Compound 1137, 4-{4-[2-(4-cyclobutylpiperazin-1-yl)-2-oxoethyl]piperazin-1-yl}-N-(2,2,2-trifluoroethyl)benzamide], for which the Ki is less than 1000 nM.

Turning to `COc1ccc(F)cc1-c1ccc(N2CCN(CC(=O)N3CCN(C4CCC4)CC3)CC2)nn1` [Compound 1045, 3-{4-[2-(4-cyclobutylpiperazin-1-yl)-2-oxoethyl]piperazin-1-yl}-6-(5-fluoro-2-methoxyphenyl) pyridazine], the Ki is less than 1000 nM.

`N#Cc1cccc(-c2cnc(N3CCN(CC(=O)N4CCN(C5CCC5)CC4)CC3)cn2)c1` [Compound 994, 3-(5-{4-[2-(4-cyclobutylpiperazin-1-yl)-2-oxoethyl]piperazin-1-yl}pyrazin-2-yl)benzonitrile]: the Ki is less than 1000 nM.

Turning to `COc1cc(F)c(-c2cnc(N3CCN(CC(=O)N4CCN(C5CCC5)CC4)CC3)cn2)cc1F` [Compound 940, 2-{4-[2-(4-cyclobutylpiperazin-1-yl)-2-oxoethyl]piperazin-1-yl}-5-(2,5-difluoro-4-methoxyphenyl)pyrazine], the Ki is less than 1000 nM.

In the case of `CN(C)c1cccc(-c2cnc(N3CCN(CC(=O)N4CCN(C5CCC5)CC4)CC3)cn2)c1` [Compound 993, 3-(5-{4-[2-(4-cyclobutylpiperazin-1-yl)-2-oxoethyl]piperazin-1-yl}pyrazin-2-yl)-N,N-dimethylaniline], the Ki is less than 1000 nM.

Consider `O=C(CN1CCN(c2cnc(-c3ccc(F)cc3F)cn2)CC1)N1CCN(C2CCC2)CC1` [Compound 961, 2-{4-[2-(4-cyclobutylpiperazin-1-yl)-2-oxoethyl]piperazin-1-yl}-5-(2,4-difluorophenyl)pyrazine], for which the Ki is less than 1000 nM.

In the case of `CCC(C)CNC(=O)c1ccc(N2CCN(CC(=O)N3CCN(C4CCC4)CC3)CC2)cc1` (centres unmarked) [Compound 1131, 4-{4-[2-(4-cyclobutylpiperazin-1-yl)-2-oxoethyl]piperazin-1-yl}-N-(2-methylbutyl)benzamide], the Ki was less than 1000 nM.

Turning to `Cc1ccc(-c2ccc(N3CCN(CC(=O)N4CCN(C5CCC5)CC4)CC3)nn2)cc1F` [Compound 1009, 3-{4-[2-(4-cyclobutylpiperazin-1-yl)-2-oxoethyl]piperazin-1-yl}-6-(3-fluoro-4-methylphenyl)pyridazine], the Ki was less than 1000 nM.

For `O=C(CN1CCN(c2ccc(-c3ccccc3Oc3ccccc3)nn2)CC1)N1CCN(C2CCC2)CC1` [Compound 1047, 3-{4-[2-(4-cyclobutylpiperazin-1-yl)-2-oxoethyl]piperazin-1-yl}-6-(2-phenoxyphenyl) pyridazine], the Ki was less than 1000 nM.

Consider `O=C(CN1CCN(c2cnc(-c3ccccc3C(F)(F)F)cn2)CC1)N1CCN(C2CCC2)CC1` [Compound 969, 2-{4-[2-(4-cyclobutylpiperazin-1-yl)-2-oxoethyl]piperazin-1-yl}-5-[2-(trifluoromethyl)phenyl] pyrazine], for which the Ki was less than 1000 nM.

As for `O=C(NC1CCCCC1)c1cccc(N2CCN(CC(=O)N3CCN(C4CCC4)CC3)CC2)c1` [Compound 1079, 3-{4-[2-(4-cyclobutylpiperazin-1-yl)-2-oxoethyl]piperazin-1-yl}-N-cyclohexylbenzamide], the Ki is less than 1000 nM.

Still in this test, the particulars now being: assay of Example 7; "*" in Ki of Table II; read-out: Ki.
Take `CCN(CC)C1CCN(CC(=O)N2CCN(C(C)C)CC2)C1` (centres unmarked) [Compound 1206, N,N-diethyl-1-[2-(4-isopropylpiperazin-1-yl)-2-oxoethyl]pyrrolidin-3-amine]: the inhibitory constant (Ki) was less than 1000 nM.

Consider `O=C(NC1CCCCCC1)c1ccc(N2CCN(CC(=O)N3CCN(C4CCC4)CC3)CC2)cc1` [Compound 1143, 4-{4-[2-(4-cyclobutylpiperazin-1-yl)-2-oxoethyl]piperazin-1-yl}-N-cycloheptylbenzamide], for which the Ki is less than 1000 nM.

`O=C1CCCc2cc(N3CCN(CC(=O)N4CCN(C5CCC5)CC4)CC3)ccc21` [Compound 1165, 6-{4-[2-(4-cyclobutylpiperazin-1-yl)-2-oxoethyl]piperazin-1-yl}-3,4-dihydronaphthalen-1(2H)-one]: the Ki was less than 1000 nM.

For the molecule `CC(=O)NC1CCN(CC(=O)N2CCN(C3CCCC3)CC2)C1` (centres unmarked) [Compound 1258, N-{1-[2-(4-cyclopentylpiperazin-1-yl)-2-oxoethyl]pyrrolidin-3-yl}acetamide], the Ki is less than 1000 nM.

Consider `O=C(NC1CCN(CC(=O)N2CCN(C3CCC3)CC2)CC1)C1CC2CCC1C2` (centres unmarked) [Compound 1226, N-{1-[2-(4-cyclobutylpiperazin-1-yl)-2-oxoethyl]piperidin-4-yl}bicyclo[2.2.1]heptane-2-carboxamide], for which the Ki was less than 1000 nM.

As to `O=C(NCC(F)(F)F)c1ccc(N2CCN(CC(=O)N3CCN(C4CCC4)CC3)CC2)nc1` [Compound 1180, 6-{4-[2-(4-cyclobutylpiperazin-1-yl)-2-oxoethyl]piperazin-1-yl}-N-(2,2,2-trifluoroethyl) nicotinamide], the Ki was less than 1000 nM.

The test is the same for the next values; noted with them: assay of Example 7; symbol * in column headed Ki of Table II; read-out: Ki.
Turning to `CC(C)N1CCN(C(=O)CN2CCN(c3cccc(Cl)c3)CC2)CC1` [Compound 302, 1-(3-chlorophenyl)-4-[2-(4-isopropylpiperazin-1-yl)-2-oxoethyl]piperazine], the Ki is less than 1000 nM.

Regarding `CC(Oc1cccc(Cl)c1)C(=O)N1CCN(CC(=O)N2CCN(C3CCC3)CC2)CC1` (centres unmarked) [Compound 418, 1-[2-(3-chlorophenoxy)propanoyl]-4-[2-(4-cyclobutylpiperazin-1-yl)-2-oxoethyl]piperazine], the Ki is less than 1000 nM.
